For data set [1], the system named is MT-4 cells. The experiment in a line: Cytotoxicity in mock-infected MT-4 cells. The conditions noted are these: MT4 cell line. In kind it is cell-based. On the procedure: (§1) First, the ability of the compounds to compete with fluorescently labeled CXCL12 (CXCL12^AF647) for binding at CXCR4 was determined. Second, since binding of CXCL12 to CXCR4 results into a transient increase of cytosolic calcium levels, the inhibition of this CXCL12-induced calcium mobilization by the various compounds was also investigated. […] In parallel, the cytotoxicity of the compounds for uninfected MT-4 cells was assessed. […] The CD4 cell line MT-4 was obtained from the American Type Culture Collection (Rockville, MD, USA) and cultured in RPMI 1640 medium (Gibco BRL, Gaithersburg, MD, USA) with 10% heat-inactivated fetal calf serum (Biowhittaker Europe, Verviers, Belgium) and 2 mmol/L L-glutamine (Gibco BRL). The anti-HIV-1 and anti-HIV-2 activity in MT-4 cells was determined using a tetrazolium-based colorimetric assay. This assay been described in detail before. Threefold dilutions of the drugs in 100 μL medium were added to duplicate wells of 96-well flat bottom plates (Iwaki Glass). […] The cytopathic effect induced by the virus was checked regularly microscopically. […] The absorbance was then recorded at 490 nm with a 96-well plate reader and compared with four cell control replicates (cells without virus and drugs) and four virus control wells (cells with virus but without drug). Each assay was performed at least three times. […] Absorbance was recorded using the VersaMax ELISA™ microplate reader (Molecular Devices) and analyzed with the Softmax Pro® software (Molecular Devices, Version 4.0, www.moleculardevices.com, accessed on 10 January 2015). Using mock-infected cells, the cytotoxic concentration 50 (CC50) of each compound was investigated.

Data set [2] can be described thus: Cytotoxicity in mock-infected MT-4 cells. In kind it is cell-based. The conditions noted are these: human, mock-infected (uninfected) MT-4 cells, concentration reducing viability of mock-infected MT4 cells by 50%; mean ± SD. On the procedure:
as §1

Data set [3] concerns the target T1, CXCR4 (Homo sapiens, UniProt P61073). The experiment in a line: CXCL12AF647 competition binding assay with Jurkat cells (flow cytometry). Also on record: endogenous in cells; host or cells: Jurkat cells. The settings on record: concentration needed to inhibit CXCL12 receptor binding by 50%; Jurkat cells, 2.9 nM CXCL12AF647; mean ± SD. On the procedure:
(§2) First, the ability of the compounds to compete with fluorescently labeled CXCL12 (CXCL12^AF647) for binding at CXCR4 was determined. […] Finally, given the role of CXCR4 as a major coreceptor for HIV entry, the antiviral activity of the compounds against the X4-tropic wild type HIV-1 NL4–3 strain and the HIV-2 ROD strain was determined in MT-4 cells. In parallel, the cytotoxicity of the compounds for uninfected MT-4 cells was assessed.
The CXCL12^AF647 binding assay with Jurkat cells has been described previously. Briefly, Jurkat cells were resuspended in assay buffer [Hank’s Balanced Salt Solution (HBSS, Thermo Fisher Scientific), 20 mM HEPES buffer, 0.2% bovine serum albumin (Sigma-Aldrich), pH 7.4] at 3 × 10^5 cells per sample and then treated with various concentrations of the compound at room temperature for 15 min. Afterwards, the cells were incubated with 2.9 nM CXCL12^AF647 (in assay buffer) at room temperature for 30 min in the dark. Cells were fixed in 1% paraformaldehyde in DPBS and specific CXCL12^AF647 binding [i.e., mean fluorescence intensity (MFI)] was quantified by flow cytometry (FACSCanto^TM II; Becton Dickinson). Data were analyzed with FlowJo® Software. The 50% inhibitory concentration (IC50) was calculated for each compound relative to the negative (i.e., autofluorescence of untreated and unlabeled cells) and positive (i.e., untreated cells exposed to CXCL12^AF647 only) control.
On the technique in general: Flow cytometry measures light scatter and fluorescence of single cells or particles in a stream.

Data set [4] deals with HIV-1 NL4.3. The experiment in a line: Anti-HIV-1 assay in MT-4 cells (tetrazolium-based colorimetric, cytopathic effect). The conditions noted are these: Human immunodeficiency virus 1, MT4. In kind it is cell-based. As for the experimental part: (§3) First, the ability of the compounds to compete with fluorescently labeled CXCL12 (CXCL12^AF647) for binding at CXCR4 was determined. Second, since binding of CXCL12 to CXCR4 results into a transient increase of cytosolic calcium levels, the inhibition of this CXCL12-induced calcium mobilization by the various compounds was also investigated. […] In parallel, the cytotoxicity of the compounds for uninfected MT-4 cells was assessed. […] The CD4 cell line MT-4 was obtained from the American Type Culture Collection (Rockville, MD, USA) and cultured in RPMI 1640 medium (Gibco BRL, Gaithersburg, MD, USA) with 10% heat-inactivated fetal calf serum (Biowhittaker Europe, Verviers, Belgium) and 2 mmol/L L-glutamine (Gibco BRL). […] The anti-HIV-1 and anti-HIV-2 activity in MT-4 cells was determined using a tetrazolium-based colorimetric assay. […] Threefold dilutions of the drugs in 100 μL medium were added to duplicate wells of 96-well flat bottom plates (Iwaki Glass). […] The cytopathic effect induced by the virus was checked regularly microscopically. […] Each assay was performed at least three times. […] Absorbance was recorded using the VersaMax ELISA™ microplate reader (Molecular Devices) and analyzed with the Softmax Pro® software (Molecular Devices, Version 4.0, www.moleculardevices.com, accessed on 10 January 2015). Using mock-infected cells, the cytotoxic concentration 50 (CC50) of each compound was investigated.
In general terms: Damage to the host cells serves as the signal in cytopathic effect assays.

In data set [5] the target is T1, CXCR4. The experiment in a line: CXCL12-induced calcium mobilization assay in U87.CD4.CXCR4 cells (FLIPR). In kind it is cell-based. The conditions noted are these: concentration needed to inhibit CXCL12-induced calcium signaling by 50%, 6.25 nM CXCL12, mean ± SD. As for the experimental part:
as §2
The calcium mobilization assay has been described in detail previously. U87.CD4.CXCR4 cells (2 × 10^4 cells per well in DMEM/10% FBS/0.01 M HEPES) were seeded in gelatin-coated (Sigma-Aldrich; 0.1% gelatin in DPBS) black-walled 96-well plates and incubated overnight at 37 °C and 5% CO2. The next day, cells were loaded with the fluorescent calcium indicator Fluo-2 acetoxymethyl (AM) ester (4 μM; Abcam) and incubated at room temperature in the dark for 45 min. Then, cells were incubated with various concentrations of the compounds for 10 min prior to the addition of 6.25 nM CXCL12 (in assay buffer). Fluctuations in intracellular calcium levels were measured in real time by the FLIPR Tetra® (Molecular Devices, Sunnyvale, CA, USA) in all 96 wells simultaneously. The response over baseline (after CXCL12 addition) was calculated with the ScreenWorks 4.0® software (Molecular Devices, Version 4.0, www.moleculardevices.com, accessed on 10 January 2015) by dividing the obtained relative light units (RLUs) through the base line measured just before CXCL12 addition. From this the IC50 value for each compound was determined taking into account the negative (i.e., untreated cells without CXCL12 stimulation) and positive (i.e., untreated cells with CXCL12 addition) control samples.

Data set [6] relates to HIV-2 ROD. The experiment in a line: Anti-HIV-2 assay in MT-4 cells (tetrazolium-based colorimetric, cytopathic effect). In kind it is cell-based. The conditions noted are these: Human immunodeficiency virus 2, MT4. On the procedure: as §3

Like-named read-outs stand apart in the source and are kept apart here.

Here are results for one compound from article PMC8539250, “Synthesis and Anti-HIV Activity of a Novel Series of Isoquinoline-Based CXCR4 Antagonists” (Molecules, 2021).

T1 sequence (P61073 whole entry): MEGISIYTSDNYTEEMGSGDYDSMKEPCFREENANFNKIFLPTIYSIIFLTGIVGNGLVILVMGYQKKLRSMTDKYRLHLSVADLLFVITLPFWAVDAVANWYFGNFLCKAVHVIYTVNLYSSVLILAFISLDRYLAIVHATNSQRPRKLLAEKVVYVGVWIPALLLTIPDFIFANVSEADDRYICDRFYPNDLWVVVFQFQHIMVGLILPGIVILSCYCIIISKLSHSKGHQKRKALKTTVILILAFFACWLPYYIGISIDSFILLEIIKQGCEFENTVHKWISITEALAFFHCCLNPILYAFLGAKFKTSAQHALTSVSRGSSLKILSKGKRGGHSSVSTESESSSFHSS

The term CC50 denotes the concentration at which the toxic effect on the cells reaches its halfway point. The term IC50 denotes the concentration at which inhibition is half-maximal. What is called EC50 is the concentration needed to bring the measured effect to its halfway point. As for `NCCCCN(Cc1nccc2ccccc12)C1CCCc2cccnc21` (centres unmarked) [Compound 19e, N1-(Isoquinolin-1-ylmethyl)-N1-(5,6,7,8-tetrahydroquinolin-8-yl)butane-1,4-diamine], the “cytotoxicity for the MT4 cell line (in words)” value in data set [1] is recorded as “lack cytotoxicity”. It took 26700 ± 18600 nM to reach half-maximal cytotoxicity in data set [2] (CC50 at 4 d). Besides, the figures for the IC50 in data set [3] and in data set [5] were 9.2 ± 4.2 nM and 130 ± 41 nM, respectively. Further, the EC50 in data set [4] (50% protection of MT-4 cells against HIV-induced cytopathicity, mean ± SD, read-out: HIV-1 NL4.3 EC50) was 84 ± 15 nM; in data set [4] (MT-4 cells, read-out: EC50 against HIV-1), < 100 nM; in data set [6] (50% protection of MT-4 cells against HIV-induced cytopathicity, mean ± SD, read-out: HIV-2 ROD EC50), 26 ± 30 nM; in data set [6] (MT-4 cells, read-out: EC50 against HIV-2), < 100 nM.
